According to US3931217A, “2,3-Dihydro-5-alkoxy-5-phenyl-5H-imidazo[2,1-a]isoindoles” (Hoffmann-La Roche Inc., priority 1974, dated 1976):

Key:
mice = assay: direct-acting stimulant / psychostimulant effect in animals such as mice; format: in vivo; details: similarly tested; result in words
Method: As has been indicated hereinabove the novel end products of this invention, i.e., the compounds of the formula I and their pharmaceutically acceptable acid addition salts and the compounds of formula II-d and their pharmaceutically acceptable acid addition salts, are useful as psychostimulants. When administered, for example, orally, to animals such as mice they produce a direct-acting stimulant effect of long duration in single doses in amounts ranging from 0.03 mg/kg to 50 mg/kg. […] Exp. Path. and Pharm., Vol. 140, page 237). The compounds of this invention have psychostimulant effects qualitatively similar in many respects to those of imipramine and amphetamine which are well known for their therapeutic uses and properties.

animals = assay: analgesic properties in standard pharmacological tests in animals; format: in vivo; details: result in words
Method: (§1) In addition to their use as psychostimulants, the compounds of formulas I and II-d are also useful as analgesic agents. […] For example, 2-(2-benzoylphenyl)-2-imidazoline in dogs at 4 mg/kg i.v. produced an increase in blood pressure of 10 mm. Hg after 2 minutes followed by gradual increase to 25 mm. Hg.

[1] = acute toxicity (LD50) in mice; details: mouse, in vivo
dogs = assay: blood pressure in dogs; format: in vivo; details: 4 mg/kg i.v.
Method: as §1

LD50 of Example 21 = details: in vivo, iv; species not given

SMILES: COC1(c2ccccc2)c2ccccc2C2=NCCN21 (centres unmarked) [2,3-dihydro-5-methoxy-5-phenyl-5H-imidazo[2,1-a]isoindole]
- test result compared with 2-(2-benzoylphenyl)-2-imidazoline (mice): qualitatively similar to 2-(2-benzoylphenyl)-2-imidazoline

SMILES: O=C(c1ccccc1)c1ccccc1C1=NCCN1 [Example 10, 2-(2-benzoylphenyl)-2-imidazoline]
- analgesic properties compared with phenylbutazone (animals): can be likened to the analgesic properties of phenylbutazone
- LD50 ([1]; ip): 77 mg/kg
- LD50 ([1]; iv): 37 mg/kg
- LD50 ([1]; po): 200 mg/kg
- LD50 ([1]; sc): 130 mg/kg
- increase in blood pressure (dogs; after 2 minutes): 10 mm. Hg
- gradual increase in blood pressure (dogs; following the 2-minute value): 25 mm. Hg

SMILES: O=C(c1ccc(Cl)cc1)c1ccccc1C1=NCCN1 [Example 15, 2-[2'-(4-chlorobenzoyl)phenyl]-2-imidazoline]
- test result compared with 2-(2-benzoylphenyl)-2-imidazoline (mice): qualitatively similar to 2-(2-benzoylphenyl)-2-imidazoline

SMILES: COc1ccc(C(=O)c2ccccc2C2=NCCN2)cc1 [Example 16, 2-[2'-(4-anisoyl)phenyl]-2-imidazoline]
- test result compared with 2-(2-benzoylphenyl)-2-imidazoline (mice): qualitatively similar to 2-(2-benzoylphenyl)-2-imidazoline

SMILES: OC1(c2ccccc2)c2ccccc2C2=NCCCCN21 (centres unmarked) [Example 21, 2,3,4,5-tetrahydro-7-hydroxy-7-phenyl-7H-diazepino[2,1-a]isoindole]
- LD50 (LD50 of Example 21): 40 mg/kg
